We go through 33 compounds from patent US20090054392A1, “NAPHTHYLPYRIMIDINE, NAPHTHYLPYRAZINE AND NAPHTHYLPYRIDAZINE ANALOGS AND THEIR USE AS AGONISTS OF THE WNT-BETA-CATENIN CELLULAR MESSAGING SYSTEM” (Wyeth, priority 2007, published 2009).

For this data set, the system named is Dkk1-LRP5-TCF-Luciferase. Description: Functional Dkk1-LRP5-TCF-Luciferase Assay in U2OS Cells. Conditions: for fold induction at 2 µM / fold induction at 20 µM / EC50: Homo sapiens, U2OS; for A = MAX FOLD Induction/DMSO CONTROL: maximum fold induction over DMSO control.
Where [1] appears, read: read-out: B = TCF ACTIVITY/DMSO CONTROL Fold induction @ 2.0 uM, 2.0 uM compound.
The mark [2] stands for this setting: read-out: C = TCF ACTIVITY/DMSO CONTROL Fold induction @ 20.0 uM, 20.0 uM compound.
[3] abbreviates: read-out: B = TCF ACTIVITY/DMSO CONTROL Fold induction @ 2.0 uM.
[4] abbreviates: read-out: C = TCF ACTIVITY/DMSO CONTROL Fold induction @ 20.0 uM.

Read-outs that look alike come from different tables or passages of the source.

The EC50 is the concentration giving half of the maximal effect. A high value points to a less potent agent.

As for `NCC1CCN(c2nccc(-c3ccc4cc(O)ccc4c3)n2)CC1` [6-{2-[4-(aminomethyl)piperidin-1-yl]pyrimidin-4-yl}-2-naphthol], the fold induction at 2 µM under setting [1] was found to be 1.88. The fold induction at 20 µM under setting [2] worked out at 0.015.
For the compound `c1ccc2cc(-c3ccnc(N4CCC5(CC4)OCCO5)n3)ccc2c1` [8-[4-(2-naphthyl)pyrimidin-2-yl]-1,4-dioxa-8-azaspiro[4.5]decane], the fold induction at 2 µM under setting [3] amounted to 1.5. Also, the fold induction at 20 µM under setting [4] amounted to 1.74.
Consider `OCC1CCCN([C@@H]2CCN(c3nccc(-c4ccc5ccccc5c4)n3)C2)C1` (stereo partly drawn) [(1-{(3R)-1-[4-(2-naphthyl)pyrimidin-2-yl]pyrrolidin-3-yl}piperidin-3-yl)methanol], for which the fold induction at 2 µM under setting [1] turned out to be 1.49.
In the case of `OCC1CCN([C@@H]2CCN(c3nccc(-c4ccc5ccccc5c4)n3)C2)CC1` [(1-{(3R)-1-[4-(2-naphthyl)pyrimidin-2-yl]pyrrolidin-3-yl}piperidin-4-yl)methanol], the fold induction at 2 µM under setting [1] came to 1.69. Further, the fold induction at 20 µM under setting [2] was 0.01.
The like results for `OCC1CCCN([C@H]2CCN(c3nccc(-c4ccc5ccccc5c4)n3)C2)C1` (stereo partly drawn) [(1-{(3S)-1-[4-(2-naphthyl)pyrimidin-2-yl]pyrrolidin-3-yl}piperidin-3-yl)methanol] were, in that order, 1.88 and 0.01.
With `OCC1CCN([C@H]2CCN(c3nccc(-c4ccc5ccccc5c4)n3)C2)CC1` [(1-{(3S)-1-[4-(2-naphthyl)pyrimidin-2-yl]pyrrolidin-3-yl}piperidin-4-yl)methanol], the fold induction at 2 µM under setting [1] worked out at 1.72. Further, under setting [2], the fold induction at 20 µM is 0.94.
On to `CC(C)(O)[C@H](N)C1CCN(c2nccc(-c3ccc4ccccc4c3)n2)CC1` [(1R)-1-amino-2-methyl-1-{1-[4-(2-naphthyl)pyrimidin-2-yl]piperidin-4-yl}propan-2-ol], for which the fold induction at 2 µM under setting [1] was 1.78.
On to `C[C@@H](N)C1CCN(c2nccc(-c3ccc4ccccc4c3)n2)CC1` [(1R)-1-{1-[4-(2-naphthyl)pyrimidin-2-yl]piperidin-4-yl}ethanamine], for which the EC50 came to 870 nM and the “A = MAX FOLD Induction/DMSO CONTROL” value is on record as 2.280 fold.
In the same order, the values of `C[C@H](N)C1CCN(c2nccc(-c3ccc4ccccc4c3)n2)CC1` [(1S)-1-{1-[4-(2-naphthyl)pyrimidin-2-yl]piperidin-4-yl}ethanamine] are 865 nM and 1.940 fold.
`CN1C[C@@H]2C[C@H]1CN2[C@@H]1CCN(c2nccc(-c3ccc4ccccc4c3)n2)C1` [(1S,4S)-2-methyl-5-{(3R)-1-[4-(2-naphthyl)pyrimidin-2-yl]pyrrolidin-3-yl}-2,5-diazabicyclo[2.2.1]heptane]: the fold induction at 2 µM under setting [1] was 1.5.
For `NCCN1CCN(c2nccc(-c3ccc4ccccc4c3)n2)CC1` [(2-{4-[4-(2-naphthyl)pyrimidin-2-yl]piperazin-1-yl}ethyl)amine], the fold induction at 2 µM under setting [3] amounted to 1. The fold induction at 20 µM under setting [4] turned out to be 1.79.
For the compound `N[C@@H](CO)C1CCN(c2nccc(-c3ccc4ccccc4c3)n2)CC1` [(2R)-2-amino-2-{1-[4-(2-naphthyl)pyrimidin-2-yl]piperidin-4-yl}ethanol], the “A = MAX FOLD Induction/DMSO CONTROL” value is listed as 1.660 fold. Moreover, the fold induction at 2 µM under setting [1] worked out at 2.96.
`O[C@@H]1CCCN(CC2CCN(c3nccc(-c4ccc5ccccc5c4)n3)C2)C1` (stereo partly drawn) [(3R)-1-({1-[4-(2-naphthyl)pyrimidin-2-yl]pyrrolidin-3-yl}methyl)piperidin-3-ol]: the response was half-maximal at 1030 nM (EC50) and the “A = MAX FOLD Induction/DMSO CONTROL” value is 3.745 fold. The fold induction at 2 µM under setting [1] stood at 2.34. For the same compound, the fold induction at 20 µM under setting [2] was 0.01.
As to `O[C@@H]1CCN(CC2CCN(c3nccc(-c4ccc5ccccc5c4)n3)C2)C1` (stereo partly drawn) [(3R)-1-({1-[4-(2-naphthyl)pyrimidin-2-yl]pyrrolidin-3-yl}methyl)pyrrolidin-3-ol], the fold induction at 2 µM under setting [1] amounted to 1.2.
For the compound `N[C@@H]1CCN(c2nccc(-c3ccc4ccccc4c3)n2)C1` [(3R)-1-[4-(2-naphthyl)pyrimidin-2-yl]pyrrolidin-3-amine], the fold induction at 2 µM under setting [1] was found to be 1.62. In addition, the fold induction at 20 µM under setting [2] is 0.01.
For the compound `O[C@@H]1CCCN([C@@H]2CCN(c3nccc(-c4ccc5ccccc5c4)n3)C2)C1` [(3R)-1-{(3R)-1-[4-(2-naphthyl)pyrimidin-2-yl]pyrrolidin-3-yl}piperidin-3-ol], a half-maximal response (EC50) required 2200 nM.
Consider `O[C@@H]1CCCN([C@H]2CCN(c3nccc(-c4ccc5ccccc5c4)n3)C2)C1` [(3R)-1-{(3S)-1-[4-(2-naphthyl)pyrimidin-2-yl]pyrrolidin-3-yl}piperidin-3-ol], for which the fold induction at 20 µM under setting [2] was 2.9.
`O=CN1CC[C@@H](Nc2nccc(-c3ccc4ccccc4c3)n2)C1` [(3R)-3-{[4-(2-naphthyl)pyrimidin-2-yl]amino}pyrrolidine-1-carbaldehyde]: the EC50 came to 7170 nM and the “A = MAX FOLD Induction/DMSO CONTROL” value was 5.305 fold. Also, the fold induction at 2 µM under setting [1] came to 1.03. Further, the fold induction at 20 µM under setting [2] is 2.69.
Take `NC(=O)N1CC[C@@H](Nc2nccc(-c3ccc4ccccc4c3)n2)C1` [(3R)-3-{[4-(2-naphthyl)pyrimidin-2-yl]amino}pyrrolidine-1-carboxamide]: a half-maximal effect (EC50) was put at 8710 nM and the “A = MAX FOLD Induction/DMSO CONTROL” value is given as 5.295 fold. The fold induction at 20 µM under setting [2] was determined as 2.42.
Take `CN(C)[C@@H]1CCN(C[C@H]2CCN(c3nccc(-c4ccc5ccccc5c4)n3)C2)C1` [(3R)—N,N-dimethyl-1-({(3R)-1-[4-(2-naphthyl)pyrimidin-2-yl]pyrrolidin-3-yl}methyl)pyrrolidin-3-amine]: the “A = MAX FOLD Induction/DMSO CONTROL” value worked out at 1.440 fold. Further, under setting [1], the fold induction at 2 µM was 2.24. For the same compound, the fold induction at 20 µM under setting [2] was 0.02.
Take `CN(C)[C@@H]1CCN(C[C@@H]2CCN(c3nccc(-c4ccc5ccccc5c4)n3)C2)C1` [(3R)—N,N-dimethyl-1-({(3S)-1-[4-(2-naphthyl)pyrimidin-2-yl]pyrrolidin-3-yl}methyl)pyrrolidin-3-amine]: the fold induction at 2 µM under setting [1] came to 1.53. Besides, the fold induction at 20 µM under setting [2] was 0.03.
For the compound `CN(C)[C@@H]1CCN(c2nccc(-c3ccc4ccccc4c3)n2)C1` [(3R)—N,N-dimethyl-1-[4-(2-naphthyl)pyrimidin-2-yl]pyrrolidin-3-amine], the EC50 was 3560 nM and the “A = MAX FOLD Induction/DMSO CONTROL” value is 5.193 fold. Besides, the fold induction at 2 µM under setting [1] turned out to be 2.88. Also, the fold induction at 20 µM under setting [2] stood at 0.065.
For `CN(C)[C@@H]1CCN(C(=O)[C@H]2CCCN2c2nccc(-c3ccc4ccccc4c3)n2)C1` [(3R)—N,N-dimethyl-1-{1-[4-(2-naphthyl)pyrimidin-2-yl]-D-prolyl}pyrrolidin-3-amine], the “A = MAX FOLD Induction/DMSO CONTROL” value worked out at 1.630 fold. In addition, the fold induction at 2 µM under setting [1] was determined as 0.93. Also, under setting [2], the fold induction at 20 µM worked out at 1.85.
The like results for `CN(C)[C@@H]1CCN(C(=O)[C@@H]2CCCN2c2nccc(-c3ccc4ccccc4c3)n2)C1` [(3R)—N,N-dimethyl-1-{1-[4-(2-naphthyl)pyrimidin-2-yl]-L-prolyl}pyrrolidin-3-amine] were, in that order, 2.335 fold, 1.1 and 4.43.
On to `CN(C)C(=O)N1CC[C@@H](Nc2nccc(-c3ccc4ccccc4c3)n2)C1` [(3R)—N,N-dimethyl-3-{[4-(2-naphthyl)pyrimidin-2-yl]amino}pyrrolidine-1-carboxamide], for which, under setting [2], the fold induction at 20 µM is 1.33.
For `CN(C)S(=O)(=O)N1CC[C@@H](Nc2nccc(-c3ccc4ccccc4c3)n2)C1` [(3R)—N,N-dimethyl-3-{[4-(2-naphthyl)pyrimidin-2-yl]amino}pyrrolidine-1-sulfonamide], the EC50 came to 3160 nM and the “A = MAX FOLD Induction/DMSO CONTROL” value stood at 2.510 fold. Also, under setting [2], the fold induction at 20 µM is 2.31.
As for `c1ccc2cc(-c3ccnc(N4CC[C@@H](NCCN5CCOCC5)C4)n3)ccc2c1` [(3R)—N-(2-morpholin-4-ylethyl)-1-[4-(2-naphthyl)pyrimidin-2-yl]pyrrolidin-3-amine], under setting [1], the fold induction at 2 µM is 1.71. Further, the fold induction at 20 µM under setting [2] turned out to be 0.21.
Turning to `CC(C)(C)N[C@@H]1CCN(c2nccc(-c3ccc4ccccc4c3)n2)C1` [(3R)—N-(tert-butyl)-1-[4-(2-naphthyl)pyrimidin-2-yl]pyrrolidin-3-amine], the fold induction at 2 µM under setting [1] stood at 1.56. Under setting [2], the fold induction at 20 µM is 0.29.
The like results for `CN(C1CCCCC1)[C@@H]1CCN(c2nccc(-c3ccc4ccccc4c3)n2)C1` [(3R)—N-cyclohexyl-N-methyl-1-[4-(2-naphthyl)pyrimidin-2-yl]pyrrolidin-3-amine] were, in that order, 1.07 and 1.77.
Turning to `CCNC(=O)N1CC[C@@H](Nc2nccc(-c3ccc4ccccc4c3)n2)C1` [(3R)—N-ethyl-3-{[4-(2-naphthyl)pyrimidin-2-yl]amino}pyrrolidine-1-carboxamide], the “A = MAX FOLD Induction/DMSO CONTROL” value was determined as 1.460 fold. Further, the fold induction at 20 µM under setting [2] was 2.01.
Regarding `CN[C@@H]1CCN(c2nccc(-c3ccc4ccccc4c3)n2)C1` [(3R)—N-methyl-1-[4-(2-naphthyl)pyrimidin-2-yl]pyrrolidin-3-amine], the fold induction at 2 µM under setting [1] came out at 1.2.
On the same count and under the same terms, next, `N[C@@H]1CCN([C@@H]2CCN(c3nccc(-c4ccc5ccccc5c4)n3)C2)C1` [(3R,3′R)-1′-[4-(2-naphthyl)pyrimidin-2-yl]-1,3′-bipyrrolidin-3-amine]: 1.39.
As to `O[C@@H]1CCN([C@@H]2CCN(c3nccc(-c4ccc5ccccc5c4)n3)C2)C1` [(3R,3′R)-1′-[4-(2-naphthyl)pyrimidin-2-yl]-1,3′-bipyrrolidin-3-ol], the fold induction at 20 µM under setting [2] came to 2.5.
